Data as given in the NIST ThermoML archive (doi:10.1021/je1003065).

Test: mn = molality of the nth substance listed, in mol/kg
Settings: Liquid, Vibrating tube method

[Br-].[Li+] [lithium bromide] + CCO
Settings	mass density [kg/m3]
353.15 K, 39784 kPa, m1 = 0.9499	834.79
353.15 K, 39945 kPa, m1 = 2.833	939.73
353.15 K, 39986 kPa, m1 = 0.2335	790.37
353.15 K, 40152 kPa, m1 = 0.5972	813.43
353.15 K, 49925 kPa, m1 = 0.9499	842.49
353.15 K, 49993 kPa, m1 = 0.5972	821.26
353.15 K, 59926 kPa, m1 = 0.9499	849.56
353.15 K, 60014 kPa, m1 = 0.2335	805.45
353.15 K, 60014 kPa, m1 = 2.833	952.95
353.15 K, 60225 kPa, m1 = 0.5972	828.81
353.15 K, 69845 kPa, m1 = 0.9499	856.11
353.15 K, 69979 kPa, m1 = 0.5972	835.44
353.15 K, 79924 kPa, m1 = 0.9499	862.38
353.15 K, 79968 kPa, m1 = 2.833	964.64
353.15 K, 80004 kPa, m1 = 0.2335	818.76
353.15 K, 80139 kPa, m1 = 0.5972	841.77
353.15 K, 90021 kPa, m1 = 0.9499	868.33
353.15 K, 99895 kPa, m1 = 2.833	975.38
353.15 K, 99925 kPa, m1 = 0.9499	873.94
353.15 K, 99987 kPa, m1 = 0.2335	829.93
353.16 K, 1827 kPa, m1 = 2.272	878.19
353.16 K, 2037 kPa, m1 = 0.5972	777.89
353.16 K, 5076 kPa, m1 = 2.272	881.19
353.16 K, 30024 kPa, m1 = 2.833	932.51
353.16 K, 50031 kPa, m1 = 0.2335	798.55
353.16 K, 69784 kPa, m1 = 2.833	958.82
353.16 K, 89993 kPa, m1 = 0.5972	847.35
353.17 K, 10149 kPa, m1 = 0.5972	786.15
353.17 K, 70025 kPa, m1 = 0.2335	812.93
353.18 K, 100098 kPa, m1 = 0.5972	852.48
353.2 K, 79893 kPa, m1 = 3.368	991.32
353.2 K, 89986 kPa, m1 = 3.368	996.68
353.2 K, 99526 kPa, m1 = 3.368	1001.5
353.21 K, 1063 kPa, m1 = 3.368	935.92
353.21 K, 4909 kPa, m1 = 3.368	939.35
353.21 K, 10311 kPa, m1 = 3.368	944.02
353.21 K, 30003 kPa, m1 = 3.368	959.64
353.21 K, 40073 kPa, m1 = 3.368	966.87
353.21 K, 49925 kPa, m1 = 3.368	973.5
353.21 K, 59786 kPa, m1 = 3.368	979.72
353.21 K, 69928 kPa, m1 = 3.368	985.74
353.22 K, 19643 kPa, m1 = 3.368	951.68
373.11 K, 79585 kPa, m1 = 2.272	924.75
373.12 K, 2208 kPa, m1 = 3.368	920.02
373.12 K, 5044 kPa, m1 = 3.368	922.8
373.12 K, 19844 kPa, m1 = 3.368	936.43
373.12 K, 59597 kPa, m1 = 2.272	911.69
373.12 K, 69993 kPa, m1 = 2.272	918.69
373.13 K, 10014 kPa, m1 = 3.368	927.55
373.13 K, 20555 kPa, m1 = 0.5972	780.15
373.13 K, 69957 kPa, m1 = 0.2335	799.09
373.14 K, 2369 kPa, m1 = 1.462	814.46
373.14 K, 2757 kPa, m1 = 0.5972	759.44
373.14 K, 10024 kPa, m1 = 0.2335	743.18
373.14 K, 10201 kPa, m1 = 0.5972	767.99
373.14 K, 29963 kPa, m1 = 3.368	944.93
373.14 K, 29993 kPa, m1 = 0.5972	788.87
373.14 K, 39934 kPa, m1 = 3.368	952.72
373.14 K, 49924 kPa, m1 = 3.368	960.01
373.14 K, 60080 kPa, m1 = 3.368	966.95
373.14 K, 69925 kPa, m1 = 3.368	973.28
373.14 K, 79738 kPa, m1 = 0.5972	829.02
373.14 K, 80004 kPa, m1 = 0.2335	806.27
373.14 K, 80063 kPa, m1 = 3.368	979.45
373.14 K, 89993 kPa, m1 = 3.368	985.2
373.14 K, 89994 kPa, m1 = 2.272	930.92
373.14 K, 99876 kPa, m1 = 3.368	990.71
373.15 K, 1026 kPa, m1 = 0.9499	780.35
373.15 K, 1235 kPa, m1 = 0.2335	732.64
373.15 K, 1415 kPa, m1 = 2.833	892.25
373.15 K, 5002 kPa, m1 = 2.833	895.82
373.15 K, 5004 kPa, m1 = 0.2335	737.23
373.15 K, 5019 kPa, m1 = 1.462	817.48
373.15 K, 5412 kPa, m1 = 0.9499	785.62
373.15 K, 10004 kPa, m1 = 2.833	900.66
373.15 K, 10068 kPa, m1 = 0.9499	790.99
373.15 K, 19935 kPa, m1 = 0.9499	801.67
373.15 K, 19957 kPa, m1 = 2.833	909.82
373.15 K, 19985 kPa, m1 = 0.2335	754.93
373.15 K, 29956 kPa, m1 = 2.833	918.4
373.15 K, 29974 kPa, m1 = 0.9499	811.66
373.15 K, 39236 kPa, m1 = 0.9499	820.14
373.15 K, 39984 kPa, m1 = 2.833	926.44
373.15 K, 40001 kPa, m1 = 0.2335	774.75
373.15 K, 49979 kPa, m1 = 2.272	904.77
373.15 K, 50002 kPa, m1 = 2.833	933.93
373.15 K, 50023 kPa, m1 = 0.9499	829.23
373.15 K, 59924 kPa, m1 = 2.833	940.87
373.15 K, 59926 kPa, m1 = 0.9499	836.92
373.15 K, 59977 kPa, m1 = 1.462	867.61
373.15 K, 59987 kPa, m1 = 0.2335	791.31
373.15 K, 69784 kPa, m1 = 2.833	947.33
373.15 K, 69895 kPa, m1 = 0.9499	844.11
373.15 K, 69979 kPa, m1 = 1.462	874.66
373.15 K, 69994 kPa, m1 = 0.5972	822.13
373.15 K, 79936 kPa, m1 = 0.9499	850.88
373.15 K, 80021 kPa, m1 = 2.833	953.61
373.15 K, 89926 kPa, m1 = 2.833	959.33
373.15 K, 89934 kPa, m1 = 0.5972	835.63
373.15 K, 89945 kPa, m1 = 0.9499	857.23
373.15 K, 89956 kPa, m1 = 0.2335	812.23
373.15 K, 99845 kPa, m1 = 2.833	964.74
373.15 K, 99866 kPa, m1 = 0.5972	840.98
373.15 K, 99874 kPa, m1 = 0.2335	817.91
373.15 K, 99968 kPa, m1 = 0.9499	863.3
